Columns and labels:
Assay type in all cases: cell-based
[1] = tested on: Staphylococcus aureus (ATCC 6538); assay: MIC / growth test of aqueous biocide mixtures in TSB, 24 hr at 32° C., with synergy index (Kull); on growth: key: growth of the microorganism took place (symbol '+'); or not (symbol '−')
Procedure: (§1) Synergy is determined from combination studies of the different actives according to the method of calculation put forward by F. C. Kull et al, Applied Microbiology, 9:538 (1961): Synergy Index (SI)=Qa/QA+Qb/QB
(§2) Where • Qa=concentration of component A in the biocide composition showing the desired effect (e.g. no growth of microorganisms) • QA=concentration of component A as single component showing the desired effect • Qb=concentration of component B in the biocide composition showing the desired effect and • QB=concentration of component B as single component showing the desired effect
(§3) For a system consisting of three active components the synergy index is calculated by the formula: Synergy Index (SI)=Qa/QA+Qb/QB+Qc/QC
(§4) Synergy in a composition then exists when the synergy index is less than 1.
(§5) In this example synergy is shown against the microorganism Staphylococcus aureus (ATCC 6538). For this purpose MIC values were determined for each individual active as well as for different combinations of the 3 actives. MIC (Minimum Inhibitory Concentration) defines the lowest concentration level of a substance to inhibit the growth of a given organism.
Subsequently the activity of these mixtures were tested against Staphylococcus aureus.
(§6) The cell density of S. aureus was 10*5 cells/ml. The incubation time was 24 hr at 32° C.
(§7) TSB (Tryptic Soy […]) was used as nutrient medium.
In this way the table represents the MIC value for each tested combination.

[2] = tested on: Escherichia coli (ATCC 8793); assay: MIC / growth test of aqueous biocide mixtures, same protocol as Example 1, with synergy index; on growth: key: growth of the microorganism took place (symbol '+'); or not (symbol '−')
Procedure: as §1, §2, §3, §4, §5, §6, §7
In this example synergy is shown against the microorganism Escherichia coli (ATCC 8793).
(§8) The test protocol is the same as described under Example 1.
In Table 6 the synergy index has been calculated.

[3] = tested on: Pseudomonas aeruginosa (ATCC 9027); assay: as above; on growth: key: growth of the microorganism took place (symbol '+'); or not (symbol '−')
Procedure: as §1, §2, §3, §4, §5, §6, §7
In this example synergy is shown against the microorganism Pseudomonas aeruginosa (ATCC 9027).
as §8
In Table 4 the synergy index has been calculated.

[4] = single active, incubation time 24 hours
[5] = in combination with IPBC 3.9 + CMIT/MIT 0.75 ppm
[6] = in combination with IPBC 7.8 + CMIT/MIT 0.75 ppm
[7] = in combination with IPBC 15.6 + CMIT/MIT 0.75 ppm
[8] = in combination with IPBC 31.2 + CMIT/MIT 0.75 ppm

O=c1[nH]sc2ccccc12 [BIT, 1,2-Benzisothiazolin-3-one]
growth ([1]; BIT 0.01 ppm, IPBC 0, without CMIT/MIT): + | growth ([1]; BIT 0.03 ppm, IPBC 0, without CMIT/MIT): + | growth ([1]; BIT 0.05 ppm, IPBC 0, without CMIT/MIT): + | growth ([1]; BIT 0.1 ppm, IPBC 0, without CMIT/MIT): + | growth ([1]; BIT 0.19 ppm, IPBC 0, without CMIT/MIT): + | growth ([1]; BIT 0.39 ppm, IPBC 0, without CMIT/MIT): + | growth ([1]; BIT 0.78 ppm, IPBC 0, without CMIT/MIT): + | growth ([1]; BIT 1.56 ppm, IPBC 0, without CMIT/MIT): + | growth ([1]; BIT 3.12 ppm, IPBC 0, without CMIT/MIT): − | growth ([1]; BIT 3.12 ppm, single active): + | growth ([1]; BIT 6.25 ppm, IPBC 0, without CMIT/MIT): − | growth ([1]; BIT 6.25 ppm, single active): − | growth ([1]; BIT 12.5 ppm, IPBC 0, without CMIT/MIT): − | growth ([1]; BIT 12.5 ppm, single active): − | growth ([1]; BIT 25 ppm, single active): − | growth ([1]; BIT 50 ppm, single active): − | growth ([1]; BIT 100 ppm, single active): − | MIC BIT con. Qb ([1]; in combination with IPBC 0.49 + CMIT/MIT 1.5 ppm): 0.78 ppm | MIC BIT con. Qb ([1]; in combination with IPBC 0.98 + CMIT/MIT 1.5 ppm): 0.78 ppm | MIC BIT con. Qb ([1]; in combination with IPBC 1.95 + CMIT/MIT 0.37 ppm): 1.56 ppm | MIC BIT con. Qb ([1]; in combination with IPBC 1.95 + CMIT/MIT 1.5 ppm): 0.78 ppm | MIC BIT con. Qb ([1]; in combination with IPBC 3.9 + CMIT/MIT 0.37 ppm): 1.56 ppm | MIC BIT con. Qb ([1]; in combination with IPBC 3.9 + CMIT/MIT 1.5 ppm): 0.39 ppm | MIC BIT con. Qb ([1]; in combination with IPBC 3.9 ppm, CMIT/MIT 0): 1.56 ppm | MIC BIT con. Qb ([1]; in combination with IPBC 7.8 + CMIT/MIT 0.37 ppm): 1.56 ppm | MIC BIT con. Qb ([1]; in combination with IPBC 7.8 + CMIT/MIT 1.5 ppm): 0.01 ppm | MIC BIT con. Qb ([1]; in combination with IPBC 7.8 ppm, CMIT/MIT 0): 0.78 ppm | MIC as single component (QA, QB, Qc) [1, 4]: 6.25 ppm | growth ([2]; BIT 1.56 ppm, single active): + | growth ([2]; BIT 3.12 ppm, single active): + | growth ([2]; BIT 6.25 ppm, single active): − | growth ([2]; BIT 12.5 ppm, single active): − | growth ([2]; BIT 25 ppm, single active): − | growth ([2]; BIT 50 ppm, single active): − | growth ([2]; BIT 100 ppm, single active): − | MIC BIT con. Qb ([2]; in combination with IPBC 0.98 + CMIT/MIT 0.75 ppm): 3.12 ppm | MIC BIT con. Qb ([2]; in combination with IPBC 1.95 + CMIT/MIT 0.75 ppm): 3.12 ppm | MIC BIT con. Qb ([2]; in combination with IPBC 3.9 + CMIT/MIT 0.19 ppm): 3.12 ppm | MIC BIT con. Qb [2, 5]: 3.12 ppm | MIC BIT con. Qb ([2]; in combination with IPBC 7.8 + CMIT/MIT 0.19 ppm): 3.12 ppm | MIC BIT con. Qb [2, 6]: 3.12 ppm | MIC BIT con. Qb ([2]; in combination with IPBC 15.6 + CMIT/MIT 0.19 ppm): 3.12 ppm | MIC BIT con. Qb [2, 7]: 3.12 ppm | MIC BIT con. Qb ([2]; in combination with IPBC 31.2 + CMIT/MIT 0.19 ppm): 3.12 ppm | MIC BIT con. Qb [2, 8]: 0.78 ppm | MIC BIT con. Qb ([2]; in combination with IPBC 62.5 + CMIT/MIT 0.19 ppm): 1.56 ppm | MIC BIT con. Qb ([2]; in combination with IPBC 62.5 ppm, CMIT/MIT 0): 3.12 ppm | MIC as single component (QA, QB, QC) [2, 4]: 6.25 ppm | growth ([3]; BIT 6.25 ppm, single active): + | growth ([3]; BIT 12.5 ppm, single active): + | growth ([3]; BIT 25 ppm, single active): + | growth ([3]; BIT 50 ppm, single active): − | growth ([3]; BIT 100 ppm, single active): − | growth ([3]; BIT 200 ppm, single active): − | MIC BIT con. Qb [3, 5]: 12.5 ppm | MIC BIT con. Qb [3, 6]: 12.5 ppm | MIC BIT con. Qb [3, 7]: 12.5 ppm | MIC BIT con. Qb [3, 8]: 12.5 ppm | MIC BIT con. Qb ([3]; in combination with IPBC 62.5 + CMIT/MIT 0.75 ppm): 6.25 ppm | MIC BIT con. Qb ([3]; in combination with IPBC 125 + CMIT/MIT 0.75 ppm): 6.25 ppm | MIC BIT con. Qb ([3]; in combination with IPBC 125 ppm, CMIT/MIT 0): 25 ppm | MIC as single component (QA, QB, QC) [3, 4]: 50 ppm

From patent US8772322B2, “Synergistic preservative compositions” (ISP Investments Inc., priority 2010, dated 2014)
